Laboratory results from patent US4268630A, “Microbiological production of ketones from C3 -C6 alkanes” (priority 1979, dated 1981).

Experiments:
[1] = test system: Methylocystis parvus OBBP (NRRL B-11,198); assay: Oxidation of n-alkanes to methyl ketones by resting cell suspension; format: cell-based; conditions: cell suspension grown on methane
Description: (§1) The pH of the nutrient medium was adjusted to 7.0 by the addition of acid or base and 50 ml. samples of the nutrient medium were charged into a plurality of 300 ml. shaker flasks. […] The isolates had been maintained on methanol (0.4% V/V) agar plates or on agar plates under an atmosphere of methane and air having a 1:1 V/V gas ratio which had been transferred every two weeks. For growth on methanol, the medium was supplemented with 0.4% methanol. For growth on methane, the gaseous phase of the inoculated flasks was replaced with a gas mixture comprised on methane and air having a ratio of 1:1 on a V/V basis. The inoculated flasks were sealed air-tight and were incubated on a rotary shaker of orbital radius 2.5 cm. at 250 rpm and at 30° C. for two days until turbidity in the medium had developed. The cells were harvested by centrifugation at 10,000×g. at 4° C. for 30 minutes. The cell pellet was washed twice with a 0.05 M phosphate buffer at a pH of 7.0 (containing 0.02 M MgCl2). The washed cells were then suspended in a 0.05 M phosphate buffer at pH 7.0.
(§2) A 0.5 ml. sample of each washed cell suspension (2 mg. cells) was put into 10 ml. vials at 4° C. which were sealed with a rubber cap. The gaseous phase of the vials was removed with vacuum and then was replaced with a gas mixture of the substrate reactant (i.e., alkane or secondary alcohol) and oxygen at a 1:1 V/V ratio. (In the case of a liquid substrate, i.e., secondary alcohol, 10 μl of the substrate was put in the 10 ml. vials). The vials were then incubated at 30° C. on a rotary shaker at 300 rpm. Samples of product (1-3 μl) were withdrawn periodically with a microsyringe and the products were analyzed by gas chromatography (ionization flame detector column).

[2] = test system: Methylosinus trichosporium OB3b (NRRL B-11,196); assay: as above; format: cell-based; conditions: cell suspension grown on methane
Description: as §1, §2

[3] = test system: Methylomonas methanica SI (NRRL B-11,199); assay: as above; format: cell-based; conditions: cell suspension grown on methane
Description: as §1, §2

[4] = test system: Methylosinus sporium 5 (NRRL B-11,197); assay: as above; format: cell-based; conditions: cell suspension grown on methane
Description: as §1, §2

[5] = test system: Methylomonas albus BG8 (NRRL B-11,200); assay: as above; format: cell-based; conditions: cell suspension grown on methane
Description: as §1, §2

[6] = test system: Methylobacter capsulatus Y (NRRL B-11,201); assay: as above; format: cell-based; conditions: cell suspension grown on methane
Description: as §1, §2

[7] = test system: Methylobacterium organophilum XX; assay: as above; format: cell-based; conditions: cell suspension grown on methane
Description: as §1, §2

[8] = test system: particulate P(40) fraction of Methylosinus trichosporium (OB3b, NRRL-B-11,196); assay: Hydroxylation of n-alkanes to secondary alcohols by particulate P(40) fraction; format: biochemical
Source text: (§3) Both cell suspensions (particulate fraction) and cell-free particulate fraction of methane-grown methylotroph microorganisms are capable of catalyzing the conversion of C3 -C6 n-alkanes to the corresponding alcohols including secondary alcohols. The conditions for preparing the cell suspensions or the cell-free particulate fractions from methane-grown methylotroph microorganisms is the same as described above. The cell-free particulate fraction requires the presence of oxygen and NADH as an electron donor. […] Tables XVI and XVII show the conversion of C3 -C6 n-alkanes to the corresponding secondary alcohols using cell suspensions and cell-free particulate fractions, respectively, of methane-grown methylotroph microorganisms.
(§4) ^(a) Particulate P(40) fraction was prepared as follows:
(§5) Cellsuspensions at 4° C. were disintegrated through a French
(§6) Pressure cell and centrifuged at 4000 × g. for 15 min. to remove
(§7) unbroken bacteria. The supernatant solution was then centrifuged at 40,00
(§8) × g. for 30 min. at 4° C. yielding the particulate P(40) and
(§9) soluble S(40) fractions. The products were identified by gas
(§10) chromatography and cochromatography with authentic standard.

[9] = molecular target: particulate P(40) fraction of Methylosinus sp. (CRL-15, NRRL-B-11,202) (Methylosinus trichosporium, UniProt Q50541+Q9KX50+Q9KX51); assay: as above; format: biochemical
particulate P(40) fraction of Methylosinus sp. (CRL-15, NRRL-B-11,202), sequence (Q9KX50 40-431): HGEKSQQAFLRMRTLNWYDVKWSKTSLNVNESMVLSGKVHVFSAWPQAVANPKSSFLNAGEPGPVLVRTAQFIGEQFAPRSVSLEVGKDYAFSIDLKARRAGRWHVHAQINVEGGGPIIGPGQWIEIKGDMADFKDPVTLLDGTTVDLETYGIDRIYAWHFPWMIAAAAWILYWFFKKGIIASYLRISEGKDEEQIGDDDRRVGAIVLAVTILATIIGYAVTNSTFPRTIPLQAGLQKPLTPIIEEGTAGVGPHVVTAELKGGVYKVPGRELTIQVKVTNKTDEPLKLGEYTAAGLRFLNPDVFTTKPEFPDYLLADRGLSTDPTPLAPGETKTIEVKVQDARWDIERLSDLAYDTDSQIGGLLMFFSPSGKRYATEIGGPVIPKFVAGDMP
particulate P(40) fraction of Methylosinus sp. (CRL-15, NRRL-B-11,202), sequence (Q50541 1-252): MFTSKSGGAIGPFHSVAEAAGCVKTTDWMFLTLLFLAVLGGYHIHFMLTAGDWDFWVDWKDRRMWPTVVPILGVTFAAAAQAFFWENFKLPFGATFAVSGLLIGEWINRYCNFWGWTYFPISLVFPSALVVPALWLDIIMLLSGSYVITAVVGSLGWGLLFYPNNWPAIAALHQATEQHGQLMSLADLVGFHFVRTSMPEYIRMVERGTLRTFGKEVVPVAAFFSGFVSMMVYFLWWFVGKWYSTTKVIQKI
particulate P(40) fraction of Methylosinus sp. (CRL-15, NRRL-B-11,202), sequence (Q9KX51 1-256): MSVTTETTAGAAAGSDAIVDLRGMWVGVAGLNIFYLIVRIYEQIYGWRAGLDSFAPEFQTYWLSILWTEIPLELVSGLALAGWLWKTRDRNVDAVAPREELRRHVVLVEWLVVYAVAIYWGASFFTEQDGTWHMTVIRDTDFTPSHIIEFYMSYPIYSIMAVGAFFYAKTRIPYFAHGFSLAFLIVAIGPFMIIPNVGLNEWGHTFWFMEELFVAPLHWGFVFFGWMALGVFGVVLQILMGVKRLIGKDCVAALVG
Source text: as §3, §4, §5, §6, §7, §8, §9, §10

[10] = test system: particulate P(40) fraction of Methylobacterium sp. (CRL-26, NRRL-B-11,222); assay: as above; format: biochemical
Source text: as §3, §4, §5, §6, §7, §8, §9, §10

[11] = test system: particulate P(40) fraction of Methylococcus capsulatus (Texas, ATCC 19,069); assay: as above; format: biochemical
Source text: as §3, §4, §5, §6, §7, §8, §9, §10

[12] = test system: Methylomonas sp. (CRL-17, NRRL-B-11,209); assay: Conversion of n-alkanes to secondary alcohols by cell suspensions; format: cell-based; conditions: growth substrate Methane
Source text: as §3

[13] = test system: Methylosinus sp. (CRL-15, NRRL-B-11,202); assay: as above; format: cell-based; conditions: growth substrate Methane
Source text: as §3

[14] = test system: Methylobacter capsulatus (Y, NRRL-B-11,201); assay: as above; format: cell-based; conditions: growth substrate Methane
Source text: as §3

[15] = test system: Methylococcus capsulatus (Texas, ATCC 19,069); assay: as above; format: cell-based; conditions: growth substrate Methane
Source text: as §3

[16] = test system: Methylosinus trichosporium (OB3b, NRRL-B-11,196); assay: as above; format: cell-based; conditions: growth substrate Methane
Source text: as §3

[17] = test system: Methylobacterium sp. (CRL-26, NRRL-B-11,208); assay: as above; format: cell-based; conditions: growth substrate Methane
Source text: as §3

[18] = test system: Methylococcus capsulatus Texas (ATCC 19069); assay: Oxidation of n-alkanes to methyl ketones by resting cell suspension; format: cell-based; conditions: cell suspension grown on methane
Description: The pH of the nutrient medium was adjusted to 7.0 by the addition of acid or base and 50 ml. samples of the nutrient medium were charged into a plurality of 300 ml. shaker flasks. The shaker flasks were inoculated with an inoculating loop of cells from an agar plate containing homogeneous colonies of the microorganisms on the plate (the purity of the isolates was confirmed by microscopic examination). The isolates had been maintained on methanol (0.4% V/V) agar plates or on agar plates under an atmosphere of methane and air having a 1:1 V/V gas ratio which had been transferred every two weeks. For growth on methanol, the medium was supplemented with 0.4% methanol. For growth on methane, the gaseous phase of the inoculated flasks was replaced with a gas mixture comprised on methane and air having a ratio of 1:1 on a V/V basis. The inoculated flasks were sealed air-tight and were incubated on a rotary shaker of orbital radius 2.5 cm. at 250 rpm and at 30° C. for two days until turbidity in the medium had developed. The cells were harvested by centrifugation at 10,000×g. at 4° C. for 30 minutes. The cell pellet was washed twice with a 0.05 M phosphate buffer at a pH of 7.0 (containing 0.02 M MgCl2). The washed cells were then suspended in a 0.05 M phosphate buffer at pH 7.0.
as §2, with “The vials were then incubated at 30° C. on a rotary shaker at 300 rpm.” left out

[19] = test system: Methylococcus capsulatus CRL M1 NRRL B-11,219; assay: Conversion of n-alkanes to oxidation products by cell suspensions; format: cell-based; conditions: methane-grown cell suspension, pH 7.0
Description: (§11) ^(a) Cell-suspensions of methanegrown methylotroph microorganisms
(§12) indicated in 0.15 M phosphate buffer, pH 7.0 incubated in the alkanes as
(§13) indicated at 3° C. The oxidation products were determined by g.l.c

[20] = test system: Methylosinus trichosporium OB3b NRRL B-11,196; assay: as above; format: cell-based; conditions: methane-grown cell suspension, pH 7.0
Description: as §11, §12, §13

## CCCC [n-Butane, n-butane]
[1]
  Conversion Rates, n-alkane to methyl ketone: 1.0 μmoles/hr/mg protein
[2]
  Conversion Rates, n-alkane to methyl ketone: 1.2 μmoles/hr/mg protein
[3]
  Conversion Rates, n-alkane to methyl ketone: 0.30 μmoles/hr/mg protein
[4]
  Conversion Rates, n-alkane to methyl ketone: 0.58 μmoles/hr/mg protein
[5]
  Conversion Rates, n-alkane to methyl ketone: 0.60 μmoles/hr/mg protein
[6]
  Conversion Rates, n-alkane to methyl ketone: 1.1 μmoles/hr/mg protein
[7]
  Conversion Rates, n-alkane to methyl ketone: 2.0 μmoles/hr/mg protein
[8]
  Conversion Rate, n-alkane to secondary alcohol: 0.79 μmoles/hr/2.0mg. of protein
[9]
  Conversion Rate, n-alkane to secondary alcohol: 0.89 μmoles/hr/2.0mg. of protein
[10]
  Conversion Rate, n-alkane to secondary alcohol: 0.61 μmoles/hr/2.0mg. of protein
[11]
  Conversion Rate, n-alkane to secondary alcohol: 0.92 μmoles/hr/2.0mg. of protein
[12]
  Conversion Rate, n-alkane to secondary alcohol: 1.2 μmoles/hr/^5 mg. protein
[13]
  Conversion Rate, n-alkane to secondary alcohol: 1.2 μmoles/hr/^5 mg. protein
[14]
  Conversion Rate, n-alkane to secondary alcohol: 0.09 μmoles/hr/^5 mg. protein
[15]
  Conversion Rate, n-alkane to secondary alcohol: 1.0 μmoles/hr/^5 mg. protein
[16]
  Conversion Rate, n-alkane to secondary alcohol: 1.5 μmoles/hr/^5 mg. protein
[17]
  Conversion Rate, n-alkane to secondary alcohol: 0.80 μmoles/hr/^5 mg. protein
[18]
  Conversion Rates, n-alkane to methyl ketone: 0.52 μmoles/hr/mg protein
[19]
  Conversion Rate to product 1-Butanol: 0.4 μmoles/hr./mg./protein
  Conversion Rate to product 2-Butanol: 0.5 μmoles/hr./mg./protein
  Conversion Rate to product 2-Butanone: 0.2 μmoles/hr./mg./protein
  Conversion Rate to product n-butanol: 0.2 μmoles/hr./mg./protein
[20]
  Conversion Rate to product 1-Butanol: 0.3 μmoles/hr./mg./protein
  Conversion Rate to product 2-Butanol: 0.4 μmoles/hr./mg./protein
  Conversion Rate to product 2-Butanone: 0.1 μmoles/hr./mg./protein
  Conversion Rate to product n-butanol: 0.1 μmoles/hr./mg./protein

## CCC [n-Propane, n-propane]
[1]
  Conversion Rates, n-alkane to methyl ketone: 1.8 μmoles/hr/mg protein
[2]
  Conversion Rates, n-alkane to methyl ketone: 1.5 μmoles/hr/mg protein
[3]
  Conversion Rates, n-alkane to methyl ketone: 2.5 μmoles/hr/mg protein
[4]
  Conversion Rates, n-alkane to methyl ketone: 2.1 μmoles/hr/mg protein
[5]
  Conversion Rates, n-alkane to methyl ketone: 2.7 μmoles/hr/mg protein
[6]
  Conversion Rates, n-alkane to methyl ketone: 1.6 μmoles/hr/mg protein
[7]
  Conversion Rates, n-alkane to methyl ketone: 2.8 μmoles/hr/mg protein
[8]
  Conversion Rate, n-alkane to secondary alcohol: 1.32 μmoles/hr/2.0mg. of protein
[9]
  Conversion Rate, n-alkane to secondary alcohol: 1.5 μmoles/hr/2.0mg. of protein
[10]
  Conversion Rate, n-alkane to secondary alcohol: 1.0 μmoles/hr/2.0mg. of protein
[11]
  Conversion Rate, n-alkane to secondary alcohol: 1.2 μmoles/hr/2.0mg. of protein
[12]
  Conversion Rate, n-alkane to secondary alcohol: 1.6 μmoles/hr/^5 mg. protein
[13]
  Conversion Rate, n-alkane to secondary alcohol: 2.1 μmoles/hr/^5 mg. protein
[14]
  Conversion Rate, n-alkane to secondary alcohol: 0.20 μmoles/hr/^5 mg. protein
[15]
  Conversion Rate, n-alkane to secondary alcohol: 1.1 μmoles/hr/^5 mg. protein
[16]
  Conversion Rate, n-alkane to secondary alcohol: 2.5 μmoles/hr/^5 mg. protein
[17]
  Conversion Rate, n-alkane to secondary alcohol: 1.4 μmoles/hr/^5 mg. protein
[18]
  Conversion Rates, n-alkane to methyl ketone: 1.2 μmoles/hr/mg protein
[19]
  Conversion Rate to product 1-Propanol: 0.5 μmoles/hr./mg./protein
  Conversion Rate to product 2-Propanol: 0.7 μmoles/hr./mg./protein
  Conversion Rate to product Acetone: 0.3 μmoles/hr./mg./protein
  Conversion Rate to product Propanol: 0.2 μmoles/hr./mg./protein
[20]
  Conversion Rate to product 1-Propanol: 0.4 μmoles/hr./mg./protein
  Conversion Rate to product 2-Propanol: 0.6 μmoles/hr./mg./protein
  Conversion Rate to product Acetone: 0.2 μmoles/hr./mg./protein
  Conversion Rate to product Propanol: 0.1 μmoles/hr./mg./protein
